Patent US20030181401A1, “Insulin secretion promoter” (KYOWA HAKKO KOGYO CO., LTD., priority 2002, published 2003)

Key:
[1] = system: C57BL/KsJ-db/db Jcl mice (model animals of Type II diabetes mellitus); assay: Test Example 1: serum insulin in glucose tolerance test after 7-day oral dosing; format: in vivo
Method: Male 9-week-old C57BL/KsJ-db/db Jcl (abbreviated as “db/db” hereinafter) mice (Clea Japan, Inc.), which are model animals of Type II diabetes mellitus, were divided in groups each consisting of 6 mice, and fed a commercially available feed CE-2 (Clea Japan, Inc.) for one week, so as to accustom the animals to the environment.
After acclimation, an aqueous 10% solution of 2′-fucosyllactose (sometimes abbreviated as “2′-FL” hereinafter) was orally administered to the mice at 200 mg (2′-FL)/kg body weight in the morning and at 300 mg (2′-FL) /kg body weight in the evening. The same volume of Saline was administered to the control group. The aqueous 2′-FL solution and the saline were both dosed daily to the mice for 7 days.
During the dosing period, CE-2 was-given together with drinking water ad libitum.
After 18-hour starvation from the final dosing on day 7, an aqueous 40% glucose solution was orally administered to 2 g (glucose)/kg body weight to the mice, to perform glucose tolerance test. Zero minute and 30 minutes after glucose loading, blood was taken from tail vein. […] Blood was centrifuged (4° C., 10000 rpm, 10 minutes), to obtain serum.
Insulin in the serum recovered was assayed by enzyme immunoassay using Lebis Insulin kit (for rats-T) (Shibayagi, Co., Ltd.) as follows. The kit reacts with insulin in the sera of both rats and mice.
First, the serum recovered was diluted with the buffer attached to the kit to 5 fold. 10 μl of the diluted serum was taken and divided in the wells of the antibody-immobilized plate into which 100 μl of a biotin-bound anti-insulin antibody was added, for reaction at ambient temperature for 2 hours. After the reaction, the plate was rinsed four times with the rinse solution attached to the kit. After rinsing, 100 μl of the peroxidase-avidin bound material was divided in the wells, for reaction at ambient temperature for 30 minutes. After reaction, the plate was rinsed four times with the rinse solution. After rinsing, 100 μl of the chromogenic solution was divided in the wells, for chromogenic reaction for 30 minutes, followed by addition of 100 μl of the reaction termination solution to each well. The absorbance of the reaction solution in the wells at 450 nm was read with a plate reader.
Herein, a standard curve was prepared by using the 200 ng/ml standard insulin solution (rat) attached to the kit as a standard solution to dilute the standard solution appropriately with the buffer solution attached to the kit for the same reaction as for the serum, and plotting the relation between the concentration and the absorbance (450 nm).
Based on the prepared standard curve and the absorbance from the reaction with the serum, the insulin concentration in the serum was determined.

ICR mice = assay: Test Example 8: serum insulin in glucose tolerance test after single oral 2′-FL dose; format: in vivo
Method: Groups of male 8-week-old ICR mice (Japan SLC, Inc.) each consisting of 6 mice were fed CE-2 (Clea Japan, Inc.) for one week, so as to accustom the animals to the environment.
Then, the mice accustomed were fasted for 18 hours. An aqueous 2% solution of 2′-FL was orally administered to the mice to 100 mg (2′-FL)/kg body weight, while 0.9% saline was administered orally to the control group. Two hours after the 2′-FL dosing, an aqueous 40% glucose solution was orally administered to 2 g (glucose)/kg body weight to the mice, for glucose tolerance test. […] Blood glucose was assayed with a simple-type blood glucose assay apparatus Medisafe Reader GR-101 (Terumo, Co., Ltd.), while the serum was collected.
Insulin in the serum recovered was assayed by enzyme immunoassay using Morinaga ultra-sensitive rat insulin assay kit (Morinaga Biochemical Research Institute, Co., Ltd.) described below. 15 μl of the serum was divided in the wells of an antibody-immobilized plate, where 85 μl of the diluent attached to the kit was divided therein, for reaction at 4° C. for 2 hours. […] The absorbance of each well at 450 nm (principal wave length) and 655 nm (sub wave length) was measured with BioRad Model 3550 microplate reader (BioRad Laboratories, Inc.). […] Based on the prepared standard curve, the serum insulin concentration corresponding to the absorbance during the reaction with the serum was determined.

In the case of 2′-fucosyllactose [2′-FL], the “insulin concentration after glucose loading compared with the control group (in words)” value ([1]; continuous daily oral dosing) is reported as “increased”, the “Serum insulin concentration after glucose loading, Zero minute” value ([1]; oral 200 mg/kg morning + 300 mg/kg evening, 7 days, 18-hour starvation, glucose 2 g/kg oral, zero minute, mean ± SD) is reported as 6.7 ± 3.3 ng/mL and the “Serum insulin concentration after glucose loading, 30 minutes” value ([1]; oral 200 + 300 mg/kg daily, 7 days, glucose 2 g/kg oral, 30 minutes, mean ± SD) is reported as 8.3 ± 3.9 ng/mL. For the same substance, the “Serum insulin concentration after glucose loading, 120 minutes” value ([1]; oral 200 + 300 mg/kg daily, 7 days, glucose 2 g/kg oral, 120 minutes, mean ± SD) was 26.1 ± 12.8 ng/mL, the “Serum insulin concentration after glucose loading” value (ICR mice; ICR mice fasted 18 hours, 100 mg/kg single oral dose two hours before glucose 2 g/kg oral, 60 minutes, mean ± SD) was 82.6 ± 91.7 pg/mL and the “serum insulin concentration after glucose loading compared with the control group (in words)” value (ICR mice; ICR mice, single oral dosing 120 minutes before glucose dosing) was “increased”.
